Measured values reported in PMC4654502, “Early Gelatinase Activity Is Not a Determinant of Long-Term Recovery after Traumatic Brain Injury in the Immature Mouse” (PLoS ONE, 2015).

How the values were obtained:
gelatinase activity = test: In situ zymography (DQ-gelatin) of brain sections after TBI at p21; assay type: in vivo, mouse; settings: 25 mg/kg s.c. at 2, 4, 24 and 48 h post-injury; brains 1 h after last injection
Method: The treatment regime was based upon several considerations. […] Thirdly, we limited treatment to a period of 48 h post-injury in order to minimize potential off-target effects on ongoing brain development processes at this time, given the known roles that these gelatinases play in postnatal synaptic maturation. For acute studies (gelatin zymography and histology) animals were euthanized at 4 hours and for in situ zymography, they were euthanized 1 hour after the last injection. For long-term studies (behavioral and cognitive assessments and histology) animals were euthanized at ~2 months post-injury. Euthanasia was by overdose with 2.5% Avertin i.p. followed by decapitation or cardiac transperfusion as described below.
One hour after the last injection, brains were collected and embedded in optimal cutting temperature medium (OCT, Tissue-Tek, CA). The tissue blocks were cryosectioned at 10μm thickness and subjected to in-situ zymography, as described by Oh et al.. Briefly, the sectioned tissues were stained with DQ-gelatin (Molecular Probes, Inc., OR, USA) to detect gelatinase activity, followed by incubation with DAPI solution to detect nuclei. […]

[1] = system: controlled cortical impact TBI at p21; test: Open field test at adulthood after TBI at p21; assay type: in vivo, male C57Bl/6J mice; settings: 25 mg/kg s.c. at 2, 4, 24, 48 h post-injury; tested ~2 months post-injury
Method: The controlled cortical impact model of TBI was used as previously described. TBI to the p21 mouse approximates a toddler-aged child, based upon the structural, biochemical and behavioral characteristics of this age. Pups were anaesthetized with 1.25% 2,2,2-tribromoethanol (Avertin; Sigma-Aldrich, St. Louis, MO) in isotonic saline (i.p. bolus at 0.02 mL/g body weight). After craniotomy, mice were subjected to a controlled cortical impact at 4.5 m/s velocity and 1.73 mm depth of penetration, for a sustained depression of 150 ms, using a 3.0 mm convex impactor tip. Mice were maintained on a water-circulating heating pad throughout surgery and recovery. Following impact, the scalp was closed with sutures and each animal administered 0.5 ml of isotonic saline subcutaneously (s.c.) to prevent post-operative dehydration. Sham-operated mice underwent identical surgical procedures, including craniotomy, without receiving the cortical impact. All mice were closely monitored for 1–2 hours post-surgery until return of the righting reflex and full mobilization. Mice were then returned to group-housing, and weighed post-surgery at days 1, 3, and weekly thereafter till the end of the study.
The treatment regime was based upon several considerations. […]
Exploratory behaviors were assessed over a 10 min session in an automated open field arena (40.6 cm x 40.6 cm; Kinder Scientific, Poway, CA). […]

MMP-9 or MMP-2 = settings: compared with SB-3CT; cited from earlier work

SMILES: O=S(=O)(CC1CS1)c1ccc(Oc2ccc(O)cc2)cc1 (stereo not shown) [p-OH SB-3CT]
- gelatinase activity post-injury (in situ zymography) compared to vehicle control (gelatinase activity): attenuated gelatinase activity
- injury-induced hyperactivity (total distance traveled, open field) [1]: did not ameliorate this hyperactivity
- percentage time spent in the center of the open field (anxiety-like behavior) [1]: neither TBI nor p-OH SB-3CT treatment affected this measure
- residence time (how long the drug is bound to the target MMPs) (MMP-9 or MMP-2): considerably longer than that of SB-3CT
